Experimental data: patent publication US20060223888A1, “Valproic acid analogues and pharmaceutical composition thereof” (priority 2002, published 2006)

How the values were obtained:
[1] = system: PTZ-induced clonic seizures; experiment: PTZ85 assay, latency of clonic seizures; assay type: in vivo; conditions: 1800 micromoles, male cd1/cr mice
Description: SCMET (PTZ85) Assay. Male CD1/CR mice weighing from 25-35 g are administrated test compounds (range of 5 doses) 15 minutes prior to PTZ. PTZ is administrated subcutaneously, just caudal to the cranium, at a dose of 85 mg/kg. Animals are then caged individually and observed for 15 minutes. The occurrence and latency to clonic and/or tonic convulsions are recorded. The mice are used once. Ten mice are used in each dose group. […] ED50 is determined from a graph of percentage protection vs log(dose) following the known method of Litchfield^18, where percentage protection refers to the percent of animals in each dose group which are protected against seizures. The compounds of interest were tested at an equivalent dose of 1800 micromoles on male cd1/cr mice using the PTZ85 Assay to induce clonic (repetitive seizures). Both the latency (time of seizure onset) and the number of animals protected increased with the size of the ring, or with increased lipophilicity.

[2] = system: Maximal Electroshock (MES) seizures; experiment: Maximal electroshock (MES) test, rats, oral, time to peak effect; assay type: in vivo; conditions: for Anticonvulsant potency compared with VPA (in words): summary of Table 2
Description: Anticonvulsant testing was conducted at the antiepileptic screening facility of the National Institute for Neurological Disorders and Stroke in Rockville, Md. Initial tests were done in mice (i.p.) followed by oral and i.p. administration to rats. Neurotoxicity was evaluated with the rotarod test. Maximal electroshock (MES) and subcutaneous methylene tetrazole (SCMET) or pentylene tetrazole (PTZ) were the most common tests performed. Typical procedures are described below. MES Assay. Male CD1/CR mice weighing from 25-35 g are administrated test compounds 15 minutes prior to MES. Mice are challenged by pulsed electrical stimulation (50 mA, 0.4 s duration, pulse width 0.5 ms, 60 pulses/sec) via corneal electrodes to induce seizure. Mice are observed post-stimulation for the onset of tonic seizures, and considered to have a tonic seizure only if there is a prolonged extension (>90° from plane of body) of the hind legs. […] Ten mice are used in each group. A number of VPA analogues and their sodium salts were tested for their efficacy as anticonvulsants and for their toxicity using the MES Assay and rotarod test.

[3] = system: rotarod test (neurotoxicity); experiment: Rotarod neurotoxicity test (TOX), rats, oral; assay type: in vivo
Description: Anticonvulsant testing was conducted at the antiepileptic screening facility of the National Institute for Neurological Disorders and Stroke in Rockville, Md. Initial tests were done in mice (i.p.) followed by oral and i.p. administration to rats. Neurotoxicity was evaluated with the rotarod test. Maximal electroshock (MES) and subcutaneous methylene tetrazole (SCMET) or pentylene tetrazole (PTZ) were the most common tests performed. Typical procedures are described below.
Rotorod Test. Acute drug induced neurotoxicity is detected in mice using the standard rotorod test. An untreated mouse, when placed on a 6 rpm rotation rod, can maintain its equilibrium for a prolonged period of time.
A number of VPA analogues and their sodium salts were tested for their efficacy as anticonvulsants and for their toxicity using the MES Assay and rotarod test. In particular, the following compounds (as shown in the structures below) were tested: 332059U (sodium salt of VPA), 325071 (known compound, tested for comparison), 325073A (metabolite of VPA), 332060U (4,4-difluoro-2-propylpentanoate, fluorinated analogue of VPA), 341031, and 341032U (conjugated (E,Z)-2,3′-diene VPA analogues).

[4] = system: Subcutaneous Methylene Tetrazole (SCMET) seizures; experiment: Subcutaneous methylene tetrazole (SCMET) test, rats, oral, time to peak effect; assay type: in vivo

SMILES: O=C([O-])/C=C/C=C1CCCCCCC1.[Na+]
- Latency of Clonic Seizures [1]: 855 s
- Number of Mice Protected Against Clonic Seizures (Out of 10) [1]: 9

SMILES: O=C([O-])/C=C/C=C1CCCCCC1.[Na+]
- Latency of Clonic Seizures [1]: 778 s
- Number of Mice Protected Against Clonic Seizures (Out of 10) [1]: 7

SMILES: O=C([O-])/C=C/C=C1CCCCC1.[Na+]
- Latency of Clonic Seizures [1]: 661 s
- Number of Mice Protected Against Clonic Seizures (Out of 10) [1]: 4

SMILES: O=C([O-])/C=C/C=C1CCCC1.[Na+]
- Latency of Clonic Seizures [1]: 589 s
- Number of Mice Protected Against Clonic Seizures (Out of 10) [1]: 2

SMILES: C/C=C\C(=C/C)C(=O)[O-].[Na+] [325071A, Sodium (2E,3Z)-2-ethylidenpent-3-enoate]
- MES N/F = number of animals protected relative to number tested ([2]; 80 mg/kg, 0.25 h): 0/4
- MES N/F = number of animals protected relative to number tested ([2]; 80 mg/kg, 0.5 h): 0/4
- MES N/F = number of animals protected relative to number tested ([2]; 80 mg/kg, 1.0 h): 0/4
- MES N/F = number of animals protected relative to number tested ([2]; 80 mg/kg, 2.0 h): 0/4
- MES N/F = number of animals protected relative to number tested ([2]; 80 mg/kg, 4.0 h): 0/4
- MES N/F = number of animals protected relative to number tested ([2]; 200 mg/kg, 0.25 h): 0/4
- MES N/F = number of animals protected relative to number tested ([2]; 200 mg/kg, 0.5 h): 1/4
- MES N/F = number of animals protected relative to number tested ([2]; 200 mg/kg, 1.0 h): 0/4
- MES N/F = number of animals protected relative to number tested ([2]; 200 mg/kg, 2.0 h): 1/4
- MES N/F = number of animals protected relative to number tested ([2]; 200 mg/kg, 4.0 h): 0/4
- TOX: N/F = number of animals that failed the rotarod test to numbers tested ([3]; 200 mg/kg, 0.25 h): 0/8
- TOX: N/F = number of animals that failed the rotarod test to numbers tested ([3]; 200 mg/kg, 0.5 h): 0/8
- TOX: N/F = number of animals that failed the rotarod test to numbers tested ([3]; 200 mg/kg, 1.0 h): 0/8
- TOX: N/F = number of animals that failed the rotarod test to numbers tested ([3]; 200 mg/kg, 2.0 h): 0/8
- TOX: N/F = number of animals that failed the rotarod test to numbers tested ([3]; 200 mg/kg, 4.0 h): 0/4
- SCMET N/F = number of animals protected relative to number tested ([4]; 80 mg/kg, 0.25 h): 0/4
- SCMET N/F = number of animals protected relative to number tested ([4]; 80 mg/kg, 0.5 h): 0/4
- SCMET N/F = number of animals protected relative to number tested ([4]; 80 mg/kg, 1.0 h): 1/4
- SCMET N/F = number of animals protected relative to number tested ([4]; 80 mg/kg, 2.0 h): 0/4
- SCMET N/F = number of animals protected relative to number tested ([4]; 80 mg/kg, 4.0 h): 0/4
- SCMET N/F = number of animals protected relative to number tested ([4]; 200 mg/kg, 0.25 h): 2/4
- SCMET N/F = number of animals protected relative to number tested ([4]; 200 mg/kg, 0.5 h): 0/4
- SCMET N/F = number of animals protected relative to number tested ([4]; 200 mg/kg, 1.0 h): 0/4
- SCMET N/F = number of animals protected relative to number tested ([4]; 200 mg/kg, 2.0 h): 1/4
- SCMET N/F = number of animals protected relative to number tested ([4]; 200 mg/kg, 4.0 h): 1/4

SMILES: CCCC(CC(C)(F)F)C(=O)[O-].[Na+] (stereo not shown) [332060U, Sodium 4,4-difluoro-2-propylpentanoate]
- TOX: N/F = number of animals that failed the rotarod test to numbers tested ([3]; 100 mg/kg, 0.25 h): 0/4
- TOX: N/F = number of animals that failed the rotarod test to numbers tested ([3]; 100 mg/kg, 0.5 h): 0/4
- TOX: N/F = number of animals that failed the rotarod test to numbers tested ([3]; 100 mg/kg, 1.0 h): 0/4
- TOX: N/F = number of animals that failed the rotarod test to numbers tested ([3]; 100 mg/kg, 2.0 h): 0/4
- TOX: N/F = number of animals that failed the rotarod test to numbers tested ([3]; 100 mg/kg, 4.0 h): 0/4
- TOX: N/F = number of animals that failed the rotarod test to numbers tested ([3]; 200 mg/kg, 0.25 h): 0/4
- TOX: N/F = number of animals that failed the rotarod test to numbers tested ([3]; 200 mg/kg, 0.5 h): 0/4
- TOX: N/F = number of animals that failed the rotarod test to numbers tested ([3]; 360 mg/kg, 0.25 h): 0/4
- TOX: N/F = number of animals that failed the rotarod test to numbers tested ([3]; 360 mg/kg, 0.5 h): 0/4
- TOX: N/F = number of animals that failed the rotarod test to numbers tested ([3]; 360 mg/kg, 1.0 h): 0/4
- TOX: N/F = number of animals that failed the rotarod test to numbers tested ([3]; 360 mg/kg, 2.0 h): 0/4
- TOX: N/F = number of animals that failed the rotarod test to numbers tested ([3]; 360 mg/kg, 4.0 h): 0/4
- SCMET N/F = number of animals protected relative to number tested ([4]; 100 mg/kg, 0.25 h): 1/4
- SCMET N/F = number of animals protected relative to number tested ([4]; 100 mg/kg, 0.5 h): 1/4
- SCMET N/F = number of animals protected relative to number tested ([4]; 100 mg/kg, 1.0 h): 0/4
- SCMET N/F = number of animals protected relative to number tested ([4]; 100 mg/kg, 2.0 h): 0/4
- SCMET N/F = number of animals protected relative to number tested ([4]; 100 mg/kg, 4.0 h): 0/4
- SCMET N/F = number of animals protected relative to number tested ([4]; 200 mg/kg, 0.25 h): 1/4
- SCMET N/F = number of animals protected relative to number tested ([4]; 200 mg/kg, 0.5 h): 1/4
- SCMET N/F = number of animals protected relative to number tested ([4]; 360 mg/kg, 0.25 h): 3/4
- SCMET N/F = number of animals protected relative to number tested ([4]; 360 mg/kg, 0.5 h): 0/4
- SCMET N/F = number of animals protected relative to number tested ([4]; 360 mg/kg, 1.0 h): 2/4
- SCMET N/F = number of animals protected relative to number tested ([4]; 360 mg/kg, 2.0 h): 1/4
- SCMET N/F = number of animals protected relative to number tested ([4]; 360 mg/kg, 4.0 h): 0/4
- Anticonvulsant efficacy in relation to neurotoxicity (in words) ([4]; summary of Table 2): effective at doses that do not demonstrate neurotoxicity

SMILES: C/C=C\C(=C/C(C)C)C(=O)[O-].[Na+] [341031U, Sodium (2E)-4-methyl-2-[(1Z)-prop-1-en-1-yl]pent-2-enoate]
- MES N/F = number of animals protected relative to number tested ([2]; 200 mg/kg, 0.25 h): 3/4
- MES N/F = number of animals protected relative to number tested ([2]; 200 mg/kg, 0.5 h): 2/4
- MES N/F = number of animals protected relative to number tested ([2]; 200 mg/kg, 1.0 h): 0/4
- MES N/F = number of animals protected relative to number tested ([2]; 200 mg/kg, 2.0 h): 0/4
- MES N/F = number of animals protected relative to number tested ([2]; 200 mg/kg, 4.0 h): 0/4
- Anticonvulsant potency compared with VPA (in words) [2]: more potent than VPA
- TOX: N/F = number of animals that failed the rotarod test to numbers tested ([3]; 200 mg/kg, 0.25 h): 0/4
- TOX: N/F = number of animals that failed the rotarod test to numbers tested ([3]; 200 mg/kg, 0.5 h): 0/4
- TOX: N/F = number of animals that failed the rotarod test to numbers tested ([3]; 200 mg/kg, 1.0 h): 0/4
- TOX: N/F = number of animals that failed the rotarod test to numbers tested ([3]; 200 mg/kg, 2.0 h): 0/4
- TOX: N/F = number of animals that failed the rotarod test to numbers tested ([3]; 200 mg/kg, 4.0 h): 0/4

SMILES: CC/C=C(\C=C(C)C)C(=O)[O-].[Na+] [341032U, Sodium (2E)-2-(2-methylprop-1-en-1-yl)pent-2-enoate]
- MES N/F = number of animals protected relative to number tested ([2]; 200 mg/kg, 0.25 h): 4/4
- MES N/F = number of animals protected relative to number tested ([2]; 200 mg/kg, 0.5 h): 3/4
- MES N/F = number of animals protected relative to number tested ([2]; 200 mg/kg, 1.0 h): 1/4
- MES N/F = number of animals protected relative to number tested ([2]; 200 mg/kg, 2.0 h): 0/4
- MES N/F = number of animals protected relative to number tested ([2]; 200 mg/kg, 4.0 h): 0/4
- Anticonvulsant potency compared with VPA (in words) [2]: more potent than VPA
- TOX: N/F = number of animals that failed the rotarod test to numbers tested ([3]; 200 mg/kg, 0.25 h): 3/4
- TOX: N/F = number of animals that failed the rotarod test to numbers tested ([3]; 200 mg/kg, 0.5 h): 4/4
- TOX: N/F = number of animals that failed the rotarod test to numbers tested ([3]; 200 mg/kg, 1.0 h): 1/4
- TOX: N/F = number of animals that failed the rotarod test to numbers tested ([3]; 200 mg/kg, 2.0 h): 0/4
- TOX: N/F = number of animals that failed the rotarod test to numbers tested ([3]; 200 mg/kg, 4.0 h): 0/4

SMILES: O=C(O)/C=C/C=C1CCCC1 [Compound 41a, (2E)-4-Cyclopentylidenebut-2-enoic Acid]
- melting point: 112 to 114 °C

SMILES: O=C(O)/C=C/C=C1CCCCC1 [Compound 41b, (2E)-4-Cyclohexylidenebut-2-enoic Acid]
- melting point: 132 to 134 °C

SMILES: O=C(O)/C=C/C=C1CCCCCC1 [Compound 41c, (2E)-4-Cycloheptylidenebut-2-enoic Acid]
- melting point: 88 to 89 °C

SMILES: O=C(O)/C=C/C=C1CCCCCCC1 [Compound 41d, (2E)-4-Cyclooctylidenebut-2-enoic Acid]
- melting point: 114 to 116 °C

SMILES: O=C(O)/C=C\C=C1CCCC1 [Compound 42a, (2Z)-4-Cyclopentylidenebut-2-enoic Acid]
- melting point: 105 to 107 °C

SMILES: O=C(O)/C=C\C=C1CCCCC1 [Compound 42b, (2Z)-4-Cyclohexylidenebut-2-enoic Acid]
- melting point: 121 to 123 °C

SMILES: O=C(O)/C=C\C=C1CCCCCC1 [Compound 42c, (2Z)-4-Cycloheptylidenebut-2-enoic Acid]
- melting point: 86 to 88 °C

SMILES: O=C(O)/C=C\C=C1CCCCCCC1 [Compound 42d, (2Z)-4-Cyclooctylidenebut-2-enoic Acid]
- melting point: 110 to 112 °C
